Experimental data reported in ChEMBL document CHEMBL1201862, “PubChem BioAssay data set” (2004).
Calls of active or inactive are those of the source.

What was measured:
Bcl-2-related protein A1 = biological target: T1, Bcl-2-related protein A1 (Mus musculus, UniProt Q07440); assay type: functional;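 note: confirmatory dose–response counterscreen on Bfl-1, used to check hits from a UBC13 polyubiquitin inhibitor campaign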
T1 sequence (Q07440 whole entry): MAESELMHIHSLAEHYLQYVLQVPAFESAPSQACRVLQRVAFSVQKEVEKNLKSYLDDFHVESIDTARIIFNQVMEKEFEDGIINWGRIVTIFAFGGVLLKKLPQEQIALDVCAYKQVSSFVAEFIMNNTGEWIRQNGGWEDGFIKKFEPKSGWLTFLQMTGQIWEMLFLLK

[1] = Luminescence Cell-Based Dose Retest to Confirm Inhibitors of Cancer Stem Cells. [Related pubchem assays (depositor defined):AID2717, AID2721]; assay type: functional; conditions: Homo sapiens
[2] = biological target: T2, Ubiquitin-conjugating enzyme E2 N (Homo sapiens, UniProt P61088); assay type: functional
T2 sequence (P61088 whole entry): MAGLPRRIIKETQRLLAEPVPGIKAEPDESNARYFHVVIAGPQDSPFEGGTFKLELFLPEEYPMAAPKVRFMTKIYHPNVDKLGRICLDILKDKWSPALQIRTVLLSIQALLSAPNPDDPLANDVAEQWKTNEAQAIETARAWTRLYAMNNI

Insulin-degrading enzyme [3] = biological target: T3, Insulin-degrading enzyme (Homo sapiens, UniProt P14735); assay: recombinant IDE activation, cell-free – biochemical, fluorescence polarization, counter-screen for IDE activator project, dose response (AID 588681)
T3 sequence (P14735 whole entry): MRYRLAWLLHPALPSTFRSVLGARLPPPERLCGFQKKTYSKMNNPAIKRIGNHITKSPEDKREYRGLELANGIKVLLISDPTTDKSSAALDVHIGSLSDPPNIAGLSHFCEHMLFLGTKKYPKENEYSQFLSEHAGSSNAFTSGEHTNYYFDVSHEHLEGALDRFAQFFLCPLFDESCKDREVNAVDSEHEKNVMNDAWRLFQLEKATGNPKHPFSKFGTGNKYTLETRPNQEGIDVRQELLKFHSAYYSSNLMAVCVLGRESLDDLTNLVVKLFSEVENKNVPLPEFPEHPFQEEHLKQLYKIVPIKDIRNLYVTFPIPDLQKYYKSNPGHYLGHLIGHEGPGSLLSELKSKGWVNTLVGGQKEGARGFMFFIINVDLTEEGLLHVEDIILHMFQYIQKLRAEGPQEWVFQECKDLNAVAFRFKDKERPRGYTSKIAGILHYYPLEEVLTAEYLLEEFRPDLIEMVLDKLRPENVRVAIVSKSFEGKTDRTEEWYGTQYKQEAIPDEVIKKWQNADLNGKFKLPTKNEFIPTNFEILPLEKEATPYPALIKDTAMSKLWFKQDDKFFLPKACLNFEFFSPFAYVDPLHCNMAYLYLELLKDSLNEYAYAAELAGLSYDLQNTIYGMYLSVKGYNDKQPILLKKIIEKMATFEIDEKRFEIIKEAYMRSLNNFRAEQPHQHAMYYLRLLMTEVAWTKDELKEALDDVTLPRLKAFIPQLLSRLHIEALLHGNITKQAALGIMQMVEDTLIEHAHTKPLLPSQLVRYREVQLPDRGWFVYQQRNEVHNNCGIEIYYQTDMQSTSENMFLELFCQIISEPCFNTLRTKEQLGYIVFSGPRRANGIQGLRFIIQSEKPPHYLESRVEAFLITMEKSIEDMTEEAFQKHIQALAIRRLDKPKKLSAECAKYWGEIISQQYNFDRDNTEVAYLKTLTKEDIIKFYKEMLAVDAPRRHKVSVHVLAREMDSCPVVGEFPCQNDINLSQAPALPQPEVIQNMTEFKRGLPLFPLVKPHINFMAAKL

Insulin-degrading enzyme [4] = biological target: T3, Insulin-degrading enzyme; assay: cellular IDE activation of Abeta substrate cleavage – fluorescence polarization, HEK cells, dose response (AID 588439); assay type: functional, cell-based
[5] = biological target: T2, Ubiquitin-conjugating enzyme E2 N; assay type: functional; remark: listed apart in the source
HEK293 [6] = assay: optical interference in Abeta FP readout, dose response, artefact control for IDE activator project, biochemical, fluorescence polarization (AID 588442); assay type: functional, cell-based; conditions: Homo sapiens
HEK293 [7] = assay: membrane integrity loss in HEK cells – cell-based, fluorescence, cytotoxicity control for IDE activator project, dose response (AID 588440); assay type: functional; conditions: Homo sapiens;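 note: cytotoxicity by LDH release measuring loss of membrane integrity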
Orexin receptor type 2 [8] = biological target: T4, Orexin receptor type 2 (Homo sapiens, UniProt O43614); assay: Counterscreen assay for antagonists of the orexin 1 receptor (OX1R; HCRTR1): Fluorescence-based cell-based dose response assay for antagonists of the orexin 2 receptor (OX2R; HCRTR2), run by assay provider.; assay type: functional
T4 sequence (O43614 whole entry): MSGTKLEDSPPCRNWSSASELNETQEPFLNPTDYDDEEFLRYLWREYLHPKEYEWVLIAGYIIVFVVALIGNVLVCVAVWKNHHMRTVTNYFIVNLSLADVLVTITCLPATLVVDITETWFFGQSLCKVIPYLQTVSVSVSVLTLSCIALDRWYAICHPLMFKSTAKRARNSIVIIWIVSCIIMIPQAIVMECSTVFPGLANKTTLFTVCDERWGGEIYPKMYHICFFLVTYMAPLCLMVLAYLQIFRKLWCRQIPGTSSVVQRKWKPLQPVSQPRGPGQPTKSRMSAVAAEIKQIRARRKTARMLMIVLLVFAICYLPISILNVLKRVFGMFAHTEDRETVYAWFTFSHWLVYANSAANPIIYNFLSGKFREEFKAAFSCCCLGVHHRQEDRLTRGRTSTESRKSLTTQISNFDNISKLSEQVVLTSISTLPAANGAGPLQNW

Orexin receptor type 2 [9] = biological target: T4, Orexin receptor type 2; assay: Counterscreen assay for antagonists of the orexin 1 receptor (OX1R; HCRTR1): Homogeneous Time Resolved Fluorescence (HTRF)-based cell-based dose response assay for antagonists of the orexin 2 receptor (OX2R; HCRTR2), run by assay provider.; assay type: functional
[10] = (§1) Counterscreen for antagonists of the orexin 1 receptor (OX1R; HCRTR1): Fluorescence-based cell-based high throughput dose response assay to identify antagonists of the parental CHO cell line. [Related pubchem assays (depositor defined):AID434989, AID435008, AID463079, AID485270, AID492963, AID492964, AID492965, AID493232, AID504699, AID504701]; assay type: functional
[11] = biological target: T5, Orexin/Hypocretin receptor type 1 (Homo sapiens, UniProt O43613); assay: Homogeneous Time Resolved Fluorescence (HTRF)-based cell-based high throughput dose response assay for antagonists of the orexin 1 receptor (OX1R; HCRTR1). [Related pubchem assays (depositor defined):AID434989, AID435008, AID463079, AID485270, AID492963, AID492964, AID492965, AID493232, AID504717, AID504718]; assay type: functional
T5 sequence (O43613 whole entry): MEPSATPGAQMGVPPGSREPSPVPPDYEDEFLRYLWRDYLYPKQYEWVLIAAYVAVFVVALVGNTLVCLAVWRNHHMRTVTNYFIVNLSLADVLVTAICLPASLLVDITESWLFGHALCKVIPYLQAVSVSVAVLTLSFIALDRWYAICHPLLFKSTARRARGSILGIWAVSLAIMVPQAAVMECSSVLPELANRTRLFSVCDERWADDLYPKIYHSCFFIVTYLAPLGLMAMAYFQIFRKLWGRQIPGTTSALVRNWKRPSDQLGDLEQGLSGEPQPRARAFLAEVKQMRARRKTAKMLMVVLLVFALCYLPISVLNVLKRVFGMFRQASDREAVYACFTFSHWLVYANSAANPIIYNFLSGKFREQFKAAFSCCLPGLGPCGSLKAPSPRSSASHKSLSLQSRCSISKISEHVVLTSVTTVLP

[12] = biological target: T5, Orexin/Hypocretin receptor type 1; assay: Fluorescence-based cell-based high throughput dose response assay for antagonists of the orexin 1 receptor (OX1R; HCRTR1). [Related pubchem assays (depositor defined):AID434989, AID435008, AID463079, AID485270, AID492963, AID492964, AID492965, AID493232, AID504717, AID504718]; assay type: functional
[13] = test system: Streptococcus sp. 'group A'; assay: Streptococcus pyogenes SK(-)GAS viability under kanamycin – luminescence, BacTiterGlo, confirmation, counter-screen for streptokinase expression inhibitor project, dose response (AID 1900); assay type: functional, organism-based
Streptococcus = assay: GAS UMAA2166 growth inhibition – luminescence, BacTiterGlo, counter-screen for streptokinase expression inhibitor project, dose response (AID 1915); assay type: functional, organism-based;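 note: potency for reduction of bacterial viability or growth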
Streptokinase A = biological target: T6, Streptokinase A (Streptococcus pyogenes serotype M1, UniProt P10520); assay: viability-normalized secreted streptokinase activity reduction – plasminogen activation absorbance, OD405, dose response (AID 1914); assay type: functional, Streptococcus pyogenes M1 GAS;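 note: secreted streptokinase activity via plasminogen activation per viability signal from cell pellet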
T6 sequence (P10520 whole entry): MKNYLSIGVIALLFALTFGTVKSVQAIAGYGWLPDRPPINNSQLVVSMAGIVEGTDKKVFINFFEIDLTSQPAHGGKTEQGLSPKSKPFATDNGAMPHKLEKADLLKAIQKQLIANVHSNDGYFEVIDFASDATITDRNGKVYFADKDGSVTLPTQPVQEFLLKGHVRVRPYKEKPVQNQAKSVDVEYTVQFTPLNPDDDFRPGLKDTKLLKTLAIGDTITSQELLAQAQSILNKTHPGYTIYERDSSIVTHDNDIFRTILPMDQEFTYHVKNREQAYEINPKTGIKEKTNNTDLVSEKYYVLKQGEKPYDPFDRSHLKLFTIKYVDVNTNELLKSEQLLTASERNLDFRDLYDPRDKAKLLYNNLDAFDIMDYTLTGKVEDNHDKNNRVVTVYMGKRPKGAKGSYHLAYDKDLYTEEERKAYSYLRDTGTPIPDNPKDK

CHO-K1 = assay: as §1, with “Homogeneous time resolved fluorescence (HTRF)-based” for “Fluorescence-based”, “cell-based” for “cell-based high throughput”, “CHO-K1” for “CHO”; assay type: functional; conditions: Cricetulus griseus;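 note: potency for inhibition of ATP-stimulated IP1 production as antagonists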
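Throughout, for AC50: cells exposed to compound for roughly 70 hours or longer before luminescence read.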

SMILES	IC50 (Bcl-2-related protein A1)	AC50 [1]	IC50 [2]	EC50 (Insulin-degrading enzyme [3])	EC50 (Insulin-degrading enzyme [4])	IC50 [5]	EC50 (HEK293 [6])	IC50 (HEK293 [7])	IC50 (Orexin receptor type 2 [8])	IC50 (Orexin receptor type 2 [9])	IC50 [10]	IC50 [11]	IC50 [12]	EC50 [13]	EC50 (Streptococcus)	EC50 (Streptokinase A)	IC50 (CHO-K1)
FC(F)(F)c1cc(CCN2CCNC[C@H]2Cc2cccc3ccccc23)cc(C(F)(F)F)c1	> 20 µM (inactive)	3.37 µM (active)	11.7 µM (active)	> 54.7 µM (inactive)	11.1 µM (inactive)	9.82 µM (active)	> 55.9 µM (inactive)	10.1 µM (inactive)	–	–	–	–	–	–	–	–	–
Cc1cnc(NC(=O)c2cc3c(C)nn(-c4ccccc4)c3s2)s1	–	–	–	–	–	–	–	–	60.4 µM (inactive)	> 50 µM (inactive)	> 49.7 µM (inactive)	2.21 µM (active)	2.37 µM (active)	2.5 µM (active)	> 150 µM (not active)	> 150 µM (not active)	> 66.2 µM (inactive)
COc1ccc([C@@H]2CC=C(C(=O)O)[C@H](c3cccc(Cl)c3)N2S(=O)(=O)c2ccccc2C)cc1	–	–	–	–	–	–	–	–	17.1 µM (inactive)	3.32 µM (active)	> 49.7 µM (inactive)	1.09 µM (active)	14.6 µM (inactive)	–	–	–	> 66.2 µM (inactive)
